Measurements from ChEMBL document CHEMBL4706608, “Design and synthesis of 3-(4-pyridyl)-5-(4-sulfamido-phenyl)-1,2,4-oxadiazole derivatives as novel GSK-3β inhibitors and evaluation of their potential as multifunctional anti-Alzheimer agents” (Eur J Med Chem, 2021).
Calls of active or inactive are those of the source. No cut-off for these calls is given here.

Tests used:
[1] = target: Glycogen synthase kinase-3 beta (Homo sapiens, UniProt P49841); test: Inhibition of GSK3beta (unknown origin) measured after 40 mins by ADP-Glo assay
BV-2 = test: Anti-neuroinflammation in mouse BV2 cells assessed as inhibition of LPS-induced NO production preincubated for 1 hr followed by LPS addition measured after 24 hrs by Griess reagent based assay; format: functional, cell-based
HepG2 [2] = test: Increase in glucose consumption in human HepG2 cells at 20 uM after 24 hrs by glucose oxidase assay; format: functional, cell-based
PC-12 [3] = test: Neuroprotective activity against H2O2-induced cytotoxicity in rat PC12 cells assessed as increase in cell viability at 10 uM preincubated for 3 hrs followed by H2O2 addition and measured after 24 hrs by MTT assay (reference value: 24.8 to 41.7%); format: functional
PC-12 [4] = test: Neuroprotective activity against H2O2-induced cytotoxicity in rat PC12 cells assessed as increase in cell viability at 30 uM preincubated for 3 hrs followed by H2O2 addition and measured after 24 hrs by MTT assay (reference value: 24.8 to 41.7%); format: functional
[5] = Cytotoxicity against rat PC-12 cells assessed as cell viability at 30 uM by MTT assay relative to control; format: cell-based; details: read-out: Activity
[6] = Cytotoxicity against rat PC-12 cells assessed as cell viability at 50 uM by MTT assay relative to control; format: cell-based; details: read-out: Activity
HepG2 [7] = test: Increase in glucose consumption in human HepG2 cells at 1 mM after 24 hrs by glucose oxidase assay (reference value: 1.36 mM); format: functional

Glycogen synthase kinase-3 beta, sequence (P49841 whole entry): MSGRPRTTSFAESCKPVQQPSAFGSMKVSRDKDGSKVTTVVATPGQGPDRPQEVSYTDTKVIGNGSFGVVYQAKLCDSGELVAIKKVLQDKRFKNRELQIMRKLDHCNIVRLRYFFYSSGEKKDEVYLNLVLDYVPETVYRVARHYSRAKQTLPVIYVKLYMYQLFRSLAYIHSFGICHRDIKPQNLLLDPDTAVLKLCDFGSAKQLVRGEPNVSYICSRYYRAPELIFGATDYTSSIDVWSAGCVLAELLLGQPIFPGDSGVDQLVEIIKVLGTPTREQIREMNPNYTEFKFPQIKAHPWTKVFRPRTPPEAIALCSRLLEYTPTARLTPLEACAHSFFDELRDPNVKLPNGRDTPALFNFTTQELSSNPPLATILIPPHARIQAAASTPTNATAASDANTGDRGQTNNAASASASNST

Row | Structure (SMILES) | IC50 [1] [µM] | IC50 (BV-2) [µM] | Activity (HepG2 [2]) | Activity (PC-12 [3]) [%] | Activity (PC-12 [4]) [%] | viability at 30 µM [5] [%] | viability at 50 µM [6] [%] | Activity (HepG2 [7]) [mM]
1 | CN(C)C(=N)NC(=N)N [METFORMIN] | – | – | – | – | – | – | – | 3.28
2 | COc1ccc(S(=O)(=O)Nc2ccc(-c3nc(-c4ccnc(Nc5ccc(OC(F)(F)F)cc5)c4)no3)cc2)cc1 | 15.4 | 3.23 | Active | 55.8 | 68.6 | 99.2 | 92.2 | –
3 | Cc1ccccc1Nc1cc(-c2noc(-c3ccc(NS(=O)(=O)c4ccc(C(C)(C)C)cc4)cc3)n2)ccn1 | 2.29 | 6.07 | – | 51.5 | 69.3 | 100 | 99.3 | –
4 | O=S(=O)(Nc1ccc(-c2nc(-c3ccnc(Nc4ccc(OC(F)(F)F)cc4)c3)no2)cc1)c1cccs1 | 7.63 | 1.3 | Active | 57 | 54.9 | 97.5 | 94.5 | –
5 | O=S(=O)(Nc1ccc(-c2nc(-c3ccnc(Nc4ccc(OC(F)(F)F)cc4)c3)no2)cc1)c1ccc(Br)cc1 | 3.12 | 5.16 | – | 52.3 | 55.8 | 102 | 82.5 | –
6 | COC(=O)c1ccc(S(=O)(=O)Nc2ccc(-c3nc(-c4ccnc(Nc5ccc(OC(F)(F)F)cc5)c4)no3)cc2)s1 | 1.19 | 1.31 | – | 25.6 | 30.6 | 97.2 | 98.6 | –
7 | Cc1cccc(Nc2cc(-c3noc(-c4ccc(NS(=O)(=O)c5ccc(C(C)(C)C)cc5)cc4)n3)ccn2)c1 | 0.94 | 10.6 | – | 52.3 | 68.5 | 93.8 | 93.8 | –
8 | Cc1ccc(Nc2cc(-c3noc(-c4ccc(NS(=O)(=O)c5ccc(C(C)(C)C)cc5)cc4)n3)ccn2)cc1 | 4.56 | 1.5 | – | 59.4 | 64.4 | 97.9 | 87.9 | –
9 | O=c1c(O)c(-c2ccc(O)c(O)c2)oc2cc(O)cc(O)c12 [QUERCETIN] | – | – | – | 53.4 | 65.7 | 99.1 | 99.5 | –
10 | COc1ccc(Nc2cc(-c3noc(-c4ccc(NS(=O)(=O)c5ccc(C(C)(C)C)cc5)cc4)n3)ccn2)cc1 | 9.89 | 6.18 | – | 44.5 | 48.1 | 98.6 | 91.6 | –
11 | CC(C)(C)c1ccc(S(=O)(=O)Nc2ccc(-c3nc(-c4ccnc(Nc5ccc(F)c(F)c5)c4)no3)cc2)cc1 | 1.32 | 2.44 | inactive | 49.6 | 60.4 | 97.7 | 92.7 | –
12 | O=S(=O)(Nc1ccc(-c2nc(-c3ccnc(Nc4ccc(OC(F)(F)F)cc4)c3)no2)cc1)c1ccc(Cl)s1 | 2.98 | 6.23 | – | 27.1 | 32.7 | 97.9 | 87.9 | –
13 | CCc1ccc(Nc2cc(-c3noc(-c4ccc(NS(=O)(=O)c5ccc(C(C)(C)C)cc5)cc4)n3)ccn2)cc1 | 3.24 | 5.4 | – | 31.5 | 36.6 | 98.6 | 83.6 | –

More lines, main results first:

Row | IC50 [1] [µM] | IC50 (BV-2) [µM] | Structure (SMILES) | Activity (HepG2 [2]) | Activity (PC-12 [3]) [%] | Activity (PC-12 [4]) [%] | viability at 30 µM [5] [%] | viability at 50 µM [6] [%] | Activity (HepG2 [7]) [mM]
14 | > 50 | 7.59 | O=[N+]([O-])c1ccc(S(=O)(=O)Nc2ccc(-c3nc(-c4ccnc(Nc5ccc(OC(F)(F)F)cc5)c4)no3)cc2)cc1 | inactive | 38.6 | 53.4 | 98.5 | 90.5 | –
15 | 0.56 | 10.9 | CC(C)(C)c1ccc(Nc2cc(-c3noc(-c4ccc(NS(=O)(=O)c5ccc(C(C)(C)C)cc5)cc4)n3)ccn2)cc1 | Active | 61.3 | 70.1 | 96.2 | 99.7 | –
16 | 1.49 | 8.69 | CC(C)(C)c1ccc(S(=O)(=O)Nc2ccc(-c3nc(-c4ccnc(Nc5ccc(C(F)(F)F)cc5)c4)no3)cc2)cc1 | – | 63.2 | 71.9 | 99.1 | 94.1 | –
17 | 7.66 | 0.72 | CC(C)(C)c1ccc(S(=O)(=O)Nc2ccc(-c3nc(-c4ccnc(Nc5ccc(OC(F)(F)F)cc5)c4)no3)cc2)cc1 | – | 48.1 | 63.1 | 96.3 | 95.3 | –
18 | 2.69 | 4.41 | O=S(=O)(Nc1ccc(-c2nc(-c3ccnc(Nc4ccc(OC(F)(F)F)cc4)c3)no2)cc1)c1ccc(F)cc1 | – | 59.4 | 67.3 | 99.9 | 97.9 | –
19 | 2.07 | 7.82 | CC(C)c1ccc(Nc2cc(-c3noc(-c4ccc(NS(=O)(=O)c5ccc(C(C)(C)C)cc5)cc4)n3)ccn2)cc1 | – | 48.3 | 54.4 | 98.8 | 78.8 | –
20 | 8.32 | 2.15 | O=[N+]([O-])c1cccc(S(=O)(=O)Nc2ccc(-c3nc(-c4ccnc(Nc5ccc(OC(F)(F)F)cc5)c4)no3)cc2)c1 | – | 53.7 | 64.7 | 94.3 | 94.3 | –
21 | 3.93 | 8.94 | CC(C)(C)c1ccc(S(=O)(=O)Nc2ccc(-c3nc(-c4ccnc(Nc5ccc(F)c(C(F)(F)F)c5)c4)no3)cc2)cc1 | – | 48.9 | 61.7 | 98.9 | 75.9 | –
22 | 1.21 | 2.53 | O=S(=O)(Nc1ccc(-c2nc(-c3ccnc(Nc4ccc(OC(F)(F)F)cc4)c3)no2)cc1)c1ccccc1OC(F)(F)F | – | 40.4 | 49.8 | 91.6 | 85.6 | –
23 | 2.85 | 4.4 | CC(C)(C)c1ccc(S(=O)(=O)Nc2ccc(-c3nc(-c4ccnc(Nc5ccc(Cl)cc5F)c4)no3)cc2)cc1 | – | 46 | 49.6 | 98.5 | 88.5 | –
24 | 8.74 | 4.22 | O=S(=O)(Nc1ccc(-c2nc(-c3ccnc(Nc4ccc(OC(F)(F)F)cc4)c3)no2)cc1)c1ccc(OC(F)(F)F)cc1 | – | 30.6 | 32.4 | 98.7 | 100 | –
25 | 2.17 | 7.55 | CC(=O)Nc1cccc(S(=O)(=O)Nc2ccc(-c3nc(-c4ccnc(Nc5ccc(OC(F)(F)F)cc5)c4)no3)cc2)c1 | inactive | 51.6 | 54.7 | 93.2 | 79.2 | –
26 | 18.9 | 4.96 | O=S(=O)(Nc1ccc(-c2nc(-c3ccnc(Nc4ccc(OC(F)(F)F)cc4)c3)no2)cc1)c1ccc(F)c(Cl)c1 | – | 36.9 | 40.1 | 98.1 | 92.1 | –
27 | – | 10.3 | Oc1ccc(/C=C/c2cc(O)cc(O)c2)cc1 [RESVERATROL] | – | – | – | – | – | –
28 | 2.63 | 1.49 | O=S(=O)(Nc1ccc(-c2nc(-c3ccnc(Nc4ccc(OC(F)(F)F)cc4)c3)no2)cc1)c1cccc(C(F)(F)F)c1 | inactive | 54.6 | 60.7 | 97.4 | 90.4 | –
